Source: patent US11458132B2, “Quinolin-2(1H)-one inhibitors of Late SV40 Factor” (TRUSTEES OF BOSTON UNIVERSITY, priority 2020, dated 2022)

Key:
FH-B cells [1] = assay: MTS cell proliferation assay; assay type: cell-based, human; conditions: for GI50: Homo sapiens, FH-B cells, MTS assay, 72 hour treatment
Description: MTS Cell Proliferation Assay: Three thousand FH-B cells were seeded per well in a 96-well plate and incubated at 37° C. for 20 hours. Compound dilutions were prepared in DMSO and added to the cell culture media to a final DMSO concentration of 1% for a 72 hour treatment. Cell growth inhibition was assessed by measuring absorbance at 490 nm using the Promega CellTiter 96® AQueous One Solution Cell Proliferation Assay (Promega, G358C). Percent growth inhibition was determined by the ratio of the absorbance of treatment wells to the absorbance of control wells. A non-linear regression plot of the percentage of growth inhibition versus compound concentration was prepared using GraphPad Prism software, using settings for the curves of variable slope and four parameters. The relative GI50 value was determined from the curve as the concentration of drug that provokes a response halfway between the top and bottom plateaus of the curve.

FH-B cells [2] = assay: Cell spreading area / cell compaction by microscopy; assay type: cell-based, human
Description: Cells were washed as before, treated with Phalloidin-iFluor 488 Reagent (abcam, ab176753) for 1 hour in 1-5% BSA in PBS, followed by Hoechst 33342 (Thermo Fisher Scientific, H3570) for 5 minutes. Mounting medium (Fisher Scientific, P10144) and cover slips were applied onto dried cells. Individually discernible cells were imaged on an Olympus Fluoview 10i. Using ImageJ, the phalloidin channel was thresholded and area and circularity values were measured and integrated into swarmplots using Python's seaborn library.
For time lapse microscopy, FH-B cells in high μ-dishes were incubated with CellBrite™ Steady Membrane stain (Biotium, 30108-T) for 30-40 minutes in the environmental chamber of a Nikon C2 Si microscope at 37° C. and 5% CO2. Treatments were added to the cells through a syringe to reach final concentrations of 4 μM FQI1 or 0.01% DMSO. Immediately thereafter, a time-lapse series was acquired by imaging every 30 seconds for 30 minutes at 20× magnification.

RPE cells = assay: Wound healing assay; assay type: cell-based
Description: Wound healing analysis: Confluent RPE cells were synchronized by incubating with 2 mM thymidine for 18-20 hours. Two intersecting lines were drawn into the confluent cells using a pipette tip. A phase-contrast image was acquired of the intersection point (“0 h” time-point) on an Olympus IX50 inverted microscope, immediately followed by treatment with the respective inhibitor and 2 mM thymidine. Phase-contrast images of the intersection point were acquired every 2 hours for 12 hours, continuing incubation at 37° C. in 5% CO2 in-between time points. Using ImageJ, the distances between each pair of neighboring vertices of the intersection point at each time-point were measured and normalized to the “0 h” sample.
RPE-hTERT Flp-In cells, propagated in DME M:F12 media with 10% fetal bovine serum at 37° C. in a 5% CO2 humidified incubator, were grown to confluence in 6-well tissue culture plates. One day prior to performing the wound healing assay, the medium was exchanged to also include 2 mM thymidine, so that the cells would stop dividing.
A cross-shaped wound was scratched into each well, and the cells imaged by phase contrast microscopy using at 4× magnification using a Olympus IX50 Inverted microscope. Then the cell media was exchanged to include vehicle (DMSO at 0.01%), 50 nM FQI2-34, 100 nM FQI2-34, or 200 nM FQI2-34; 2 mM thymidine was maintained throughout, as well. Cells were imaged again at 2 h, 4h, 6h, and 8h, in order to measure the migration of the cells into the wound.
Each of the 4 lines across the vertices of the “X” were individually measured from each set of images using ImageJ. Relative distances of cell migration into the wound were obtained by subtracting each of the lengths for 2-8 hour timepoints from the length at the 0 hour timepoint for that line and that sample. The averages of the four changes in lengths per sample were then plotted over time for each concentration of FQI2-34, from […], using Prism software. Triplicate technical replicates were performed for each concentration.

SMILES	GI50 (FH-B cells [1])	effect of FQI1 on cell spreading area after taxol pretreatment (FH-B cells [2]; 1 μM taxol 30 minutes, then 4 μM FQI1)	reduction in cell spreading area (FH-B cells [2]; 4 μM FQI1, 30-60 minutes, vs vehicle)	reduction in cell spreading area (FH-B cells [2]; Y-27632 pretreatment 30 minutes, then 4 μM FQI1 30 minutes)	decrease in median cell spreading area (FH-B cells [2]; vehicle pretreatment 30 minutes, then 4 μM FQI1 10 or 30 minutes)	reduction in cell spreading area (FH-B cells [2]; vehicle pretreatment (control group of Y-27632 experiment), 4 μM FQI1 30 minutes)	time by which inhibition of migration is detectable (RPE cells; 4 μM FQI1)	migration of cells into the wound (RPE cells; 4 μM FQI1 or 1 μM nocodazole, monitored 12 hours)	fold higher efficacy than FQI1 in inhibiting proliferation of FH-B cells (FH-B cells [1])	decrease in cell spreading (FH-B cells [2]; 200 nM FQI2-34, 30 minutes, vs vehicle)	fold lower concentration than the effective concentrations for FQI1 (cell compaction) (FH-B cells [2]; 200 nM FQI2-34 vs 4 μM FQI1)	fold lower concentration than that used for FQI1 in the same assay (RPE cells)	concentration that effectively inhibits cell migration (RPE cells; 50, 100, 200 nM tested, 2-8 h)
CCOc1ccccc1C1CC(=O)Nc2cc3c(cc21)OCO3 (centres unmarked) [FQI1, 8-(2-ethoxyphenyl)-7,8-dihydro-[1,3]dioxolo[4,5-g]quinolin-6(5H)-one]	2300 nM	no detectable effect	1.7 fold	1.2 fold	1.5 fold	1.6 fold	≤ 4 h	hindered RPE cells from migrating into the wound	–	–	–	–	–
CCOc1cc(N(C)C)ccc1-c1cc(=O)[nH]c2cc3c(cc12)OCO3 [FQI2-34, 8-(4-(dimethylamino)-2-ethoxyphenyl)-[1,3]dioxolo[4,5-g]quinolin-6(5H)-one]	140 nM	–	–	–	–	–	–	–	17 fold	2.1 fold	20 fold	20 fold	200 nM
